Measured values reported in ChEMBL document CHEMBL1201862, “PubChem BioAssay data set” (2004).
Activity calls are given as the source filed them.

Experiments:
[1] = molecular target: T1, Endoribonuclease toxin MazF (Escherichia coli K-12, UniProt P0AE70); test: MazF toxin RNase activators, dose response, biochemical, fluorescence, single-stranded RNA substrate, uHTS hits (AID 588481); format: functional
T1 sequence (P0AE70 whole entry): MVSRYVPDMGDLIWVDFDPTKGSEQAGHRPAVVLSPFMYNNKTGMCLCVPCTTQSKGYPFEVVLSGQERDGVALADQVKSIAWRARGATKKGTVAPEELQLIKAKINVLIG

Genome polyprotein = Genome polyprotein (dengue virus type 2, UniProt P29990); test: Dengue-2 NS5 methyltransferase inhibitors, primary screen, biochemical, confirmation dose response (AID 588689); format: functional
[2] = molecular target: T1, Endoribonuclease toxin MazF; test: fluorescent RNA oligo signal without MazF, dose response, counter-screen for MazEF activator project, biochemical, fluorescence, single-stranded RNase substrate (AID 588502); format: functional
[3] = P. falciparum Dd2 growth inhibitors, dose response, SYBR Green, cherry-picked samples (AID 1159567); format: functional, cell-based
[4] = HepG2 cell cytotoxicity, dose response, cytotoxicity control, cherry-picked samples (AID 1159577); format: functional, cell-based
[5] = HEK293 cell cytotoxicity, dose response, cytotoxicity control, plate reader, cherry-picked samples (AID 743446); format: functional, cell-based
[6] = LGR2 antagonists, dose response, cell-based, HEK293, CRE-luciferase reporter, cherry pick, set 2 (AID 743343); format: functional;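 note: transfected cells were stimulated with diluted bursicon conditioned medium after compound addition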
[7] = HepG2 cell cytotoxicity, dose response, cytotoxicity control, plate reader, cherry-pick, antagonist series (AID 743416); format: functional, cell-based
[8] = MC4R antagonists, dose response, counter-screen for LGR2 antagonist project, cell-based, plate reader, cherry pick (AID 743444); format: functional;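 note: transfected HEK 293 cells stimulated with alpha-MSH peptide; potency of inhibitors of the alpha-MSH evoked signal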
[9] = A549 cell cytotoxicity, dose response, cytotoxicity control, plate reader, cherry-pick, antagonist series (AID 743412); format: functional, cell-based
[10] = molecular target: T2, DNA repair and recombination protein RAD54-like (Homo sapiens, UniProt Q92698); test: inhibitors of human RAD54 branch migration, confirmation, biochemical, fluorescence, cherry-picked samples, dose series (AID 651657); format: functional
T2 sequence (Q92698 whole entry): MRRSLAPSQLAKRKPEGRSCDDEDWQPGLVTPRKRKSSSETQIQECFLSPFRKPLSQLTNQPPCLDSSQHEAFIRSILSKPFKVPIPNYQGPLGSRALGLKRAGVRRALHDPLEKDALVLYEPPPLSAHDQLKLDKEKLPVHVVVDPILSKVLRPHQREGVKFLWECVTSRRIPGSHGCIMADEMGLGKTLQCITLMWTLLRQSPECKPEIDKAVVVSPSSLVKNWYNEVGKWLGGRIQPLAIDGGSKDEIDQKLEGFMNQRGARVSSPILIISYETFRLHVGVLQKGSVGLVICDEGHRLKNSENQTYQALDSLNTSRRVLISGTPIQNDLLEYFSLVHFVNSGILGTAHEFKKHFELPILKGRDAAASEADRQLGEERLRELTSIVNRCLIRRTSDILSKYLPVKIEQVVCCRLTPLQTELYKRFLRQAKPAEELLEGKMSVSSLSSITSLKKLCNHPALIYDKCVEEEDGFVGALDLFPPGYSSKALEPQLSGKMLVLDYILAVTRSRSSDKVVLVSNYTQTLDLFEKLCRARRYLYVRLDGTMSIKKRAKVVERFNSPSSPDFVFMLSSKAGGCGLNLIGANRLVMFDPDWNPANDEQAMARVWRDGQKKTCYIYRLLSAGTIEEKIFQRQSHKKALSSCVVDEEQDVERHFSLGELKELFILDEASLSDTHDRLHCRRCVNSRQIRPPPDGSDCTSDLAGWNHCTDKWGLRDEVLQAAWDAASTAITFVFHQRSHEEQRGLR

[11] = inhibitors of Vif binding to APOBEC3G peptide, primary screen, biochemical, TR-FRET, GST-Vif 1-94, biotin-A3G peptide, dose response retest (AID 1117319); format: functional;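 note: TR-FRET signal of purified GST-Vif binding a biotinylated A3G peptide; inhibitors lower the FRET signal by blocking Vif and A3G binding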
[12] = HeLa cell cytotoxicity, dose response, cytotoxicity control for MgcRacGAP inhibitor project (AID 624300); format: functional
[13] = molecular target: T3, Rac GTPase-activating protein 1 (Homo sapiens, UniProt Q9H0H5); test: MgcRacGAP GTPase-activating activity inhibitors, confirmation, biochemical, ADP Hunter fluorescence, primary and confirmatory (AID 624330); format: functional
T3 sequence (Q9H0H5 whole entry): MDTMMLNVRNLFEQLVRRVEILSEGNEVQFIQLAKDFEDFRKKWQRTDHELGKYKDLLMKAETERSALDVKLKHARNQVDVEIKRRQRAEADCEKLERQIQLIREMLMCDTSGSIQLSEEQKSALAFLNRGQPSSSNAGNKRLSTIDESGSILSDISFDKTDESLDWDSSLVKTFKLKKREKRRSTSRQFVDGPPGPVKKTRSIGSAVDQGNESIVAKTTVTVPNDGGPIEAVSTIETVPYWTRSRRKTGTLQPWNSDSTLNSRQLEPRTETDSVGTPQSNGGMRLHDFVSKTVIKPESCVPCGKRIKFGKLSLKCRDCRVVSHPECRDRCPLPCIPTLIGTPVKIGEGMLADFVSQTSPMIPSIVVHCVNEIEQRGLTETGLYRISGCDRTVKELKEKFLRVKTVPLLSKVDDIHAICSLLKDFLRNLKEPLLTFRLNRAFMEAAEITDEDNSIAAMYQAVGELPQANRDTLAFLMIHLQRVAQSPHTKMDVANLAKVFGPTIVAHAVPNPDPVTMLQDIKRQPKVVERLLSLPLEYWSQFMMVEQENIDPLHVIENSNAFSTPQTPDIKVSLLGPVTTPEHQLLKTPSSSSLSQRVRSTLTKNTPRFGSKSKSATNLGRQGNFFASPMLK

[14] = test system: Streptococcus sp. 'group A'; test: growth inhibition of control SK(-) GAS strain, dose response, counter-screen for streptokinase expression inhibitor project, luminescence, kanamycin, BacTiterGlo, confirmation (AID 1900); format: functional, organism-based
Streptococcus = test: Group A Streptococcus viability loss, dose response, counter-screen for streptokinase expression inhibitor project, luminescence, BacTiterGlo (AID 1915); format: functional, organism-based;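 note: potency for reduction of bacterial viability or growth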
[15] = molecular target: Heat shock protein HSP 90-alpha (Homo sapiens, UniProt P07900); format: functional, organism-based
[16] = molecular target: T4, Carboxy-terminal domain RNA polymerase II polypeptide A small phosphatase 1 (Homo sapiens, UniProt Q9GZU7); test: inhibitors of CTDSP1, concentration-response testing, biochemical assay, absorbance-based, actives from ultra-high-throughput screening (AID 540297); format: functional
T4 sequence (Q9GZU7 whole entry): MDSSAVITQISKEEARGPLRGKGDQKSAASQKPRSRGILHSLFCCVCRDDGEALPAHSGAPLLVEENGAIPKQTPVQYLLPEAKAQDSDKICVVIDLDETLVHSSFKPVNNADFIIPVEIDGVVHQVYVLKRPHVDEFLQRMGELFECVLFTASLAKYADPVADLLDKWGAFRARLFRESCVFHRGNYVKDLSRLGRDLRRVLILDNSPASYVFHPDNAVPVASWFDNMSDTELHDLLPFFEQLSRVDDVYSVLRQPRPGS

[17] = molecular target: T5, Zinc finger protein mex-5 (Caenorhabditis elegans, UniProt Q9XUB2); test: MEX-5/TCR-2 RNA interaction inhibitors, dose response, biochemical, C. elegans, fluorescence polarization (AID 1960)
T5 sequence (Q9XUB2 whole entry): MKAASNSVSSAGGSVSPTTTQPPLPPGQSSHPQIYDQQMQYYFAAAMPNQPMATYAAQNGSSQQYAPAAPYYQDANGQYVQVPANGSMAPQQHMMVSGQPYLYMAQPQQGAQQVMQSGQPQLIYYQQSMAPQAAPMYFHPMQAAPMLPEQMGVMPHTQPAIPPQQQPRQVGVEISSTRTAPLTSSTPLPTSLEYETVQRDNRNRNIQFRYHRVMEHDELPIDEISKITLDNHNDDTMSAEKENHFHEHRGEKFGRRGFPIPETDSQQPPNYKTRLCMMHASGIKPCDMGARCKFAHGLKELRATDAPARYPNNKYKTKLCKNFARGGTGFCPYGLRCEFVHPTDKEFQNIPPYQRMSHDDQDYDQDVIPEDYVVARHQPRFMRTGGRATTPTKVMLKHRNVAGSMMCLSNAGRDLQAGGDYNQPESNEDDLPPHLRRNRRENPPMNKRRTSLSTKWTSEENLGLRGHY

[18] = molecular target: T6, RNA-binding protein pos-1 (Caenorhabditis elegans, UniProt G5EF15); test: inhibitors of POS-1/mex-3 RNA binding, dose response, biochemical, fluorescence polarization (AID 1964);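 note: purified POS-1 fused to maltose binding protein made in E. coli; potency of compounds blocking POS-1 binding to fluorescent RNA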
T6 sequence (G5EF15 whole entry): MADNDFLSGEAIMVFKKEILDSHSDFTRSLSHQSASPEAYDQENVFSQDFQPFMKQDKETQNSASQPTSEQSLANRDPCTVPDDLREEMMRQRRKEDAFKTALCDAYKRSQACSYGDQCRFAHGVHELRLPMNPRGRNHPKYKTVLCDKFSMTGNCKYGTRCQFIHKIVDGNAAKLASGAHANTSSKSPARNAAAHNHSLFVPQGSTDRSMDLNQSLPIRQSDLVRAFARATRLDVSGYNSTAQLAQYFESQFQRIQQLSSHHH

Genome polyprotein, sequence (P29990 2492-3391 limits assumed): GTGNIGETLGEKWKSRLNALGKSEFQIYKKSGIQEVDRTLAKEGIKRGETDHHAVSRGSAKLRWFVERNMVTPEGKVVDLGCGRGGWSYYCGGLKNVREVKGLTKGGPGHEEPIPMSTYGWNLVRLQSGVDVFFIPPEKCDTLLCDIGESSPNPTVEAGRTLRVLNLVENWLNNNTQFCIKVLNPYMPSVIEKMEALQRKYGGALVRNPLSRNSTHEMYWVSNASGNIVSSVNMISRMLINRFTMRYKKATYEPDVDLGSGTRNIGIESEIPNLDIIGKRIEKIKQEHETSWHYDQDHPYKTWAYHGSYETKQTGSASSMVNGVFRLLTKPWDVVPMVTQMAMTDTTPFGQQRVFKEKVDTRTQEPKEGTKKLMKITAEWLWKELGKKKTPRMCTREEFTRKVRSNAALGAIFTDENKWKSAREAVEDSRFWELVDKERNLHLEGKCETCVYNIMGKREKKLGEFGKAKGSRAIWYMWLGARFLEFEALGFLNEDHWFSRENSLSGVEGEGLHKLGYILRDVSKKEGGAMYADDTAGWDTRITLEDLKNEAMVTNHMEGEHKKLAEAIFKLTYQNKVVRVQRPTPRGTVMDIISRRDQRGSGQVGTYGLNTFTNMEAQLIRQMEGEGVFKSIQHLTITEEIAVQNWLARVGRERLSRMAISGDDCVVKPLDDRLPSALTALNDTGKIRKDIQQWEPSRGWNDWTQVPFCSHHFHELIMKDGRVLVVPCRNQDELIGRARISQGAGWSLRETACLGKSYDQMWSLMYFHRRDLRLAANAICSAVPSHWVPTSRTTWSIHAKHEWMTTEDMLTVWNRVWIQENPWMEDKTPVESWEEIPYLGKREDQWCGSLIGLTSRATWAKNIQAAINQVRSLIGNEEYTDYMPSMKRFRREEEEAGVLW

In the case of `O=C1C(=Cc2cccn2-c2ccc(O)cc2)C(=O)c2ccccc21`, the EC50 [1] is reported as > 99 µM (inactive), the IC50 (Genome polyprotein) is reported as 10.1 µM (active) and the EC50 [2] is reported as 50.3 µM (inactive).

In the case of `N#C[C@@H]1[C@H](c2ccccc2-c2cccc(F)c2)[C@H](CO)N1C(=O)NC1CCCC1`, the AC50 [3] is reported as 6.42 µM (active) and the AC50 [4] is reported as > 39 µM (inactive).

With `COc1ccc(CCN2C(=O)c3cccc4c(C(=O)N5CCCCC5)ccc(c34)C2=O)cc1OC` the AC50 [5] was 16.7 µM (active), the AC50 [6] was 21.6 µM (active) and the AC50 [7] was > 52 µM (inactive). The AC50 [8] was 18 µM (active) and the AC50 [9] was > 52 µM (inactive).

In the case of `Cc1ccc(/C=C2\SC(=S)N(CCC(=O)Nc3cccnc3)C2=O)cc1`, the EC50 [1] is reported as > 99 µM (inactive) and the EC50 [2] is reported as > 99 µM (inactive).

In the case of `COc1ccc2oc(C(=O)N3CCc4ccccc43)c(C)c2c1`, the AC50 [5] is reported as 33.9 µM (active), the AC50 [6] is reported as 7.5 µM (active) and the AC50 [7] is reported as 21.5 µM (active). The AC50 [8] was 6.24 µM (active) and the AC50 [9] was 20 µM (active).

In the case of `Nc1c(C(=O)C2CC2)sc2nc(-c3cccs3)cc(C(F)(F)F)c12`, the EC50 [1] is reported as > 99 µM (inactive) and the EC50 [2] is reported as 10.6 µM (active).

With `OC1CCCN(Cc2c3ccccc3cc3ccccc23)C1` (stereo not given) the AC50 [10] was 4.09 µM (active).

For `COCCN(Cc1cc2ccccc2nc1O)C(=O)c1ccccc1OC`, the IC50 [11] was > 100 µM (active).

For `Clc1ccc(OCCOCCNCc2ccccc2)cc1Cl`, the CC50 [12] was 91.9 µM (active) and the IC50 [13] was 149 µM (active).

For `O=C(Nc1nc(-c2ccccn2)cs1)c1ncc(Cl)c(Cl)c1Cl`, the EC50 [14] was 0.39 µM (active), the EC50 (Streptococcus) was 1.64 µM (active) and the AC50 [15] was 3.55 µM (active).

For `COc1cc2nc3c(O)n(CCN4CCCCC4)cnc-3c2cc1OC`, the AC50 [10] was 36.3 µM (active).

With `CC(C)C(NC(N)=O)C(=O)NC1CCCCC1` (stereo not given) the IC50 [11] was > 100 µM (active).

For `Cc1ccc(C=C2C(=O)c3ccccc3C2=O)o1`, the EC50 [1] was > 99 µM (inactive), the IC50 [16] was 6.25 µM (active) and the EC50 [2] was 85.2 µM (inactive).

With `Cn1c(C(=O)NCCCN2CCOCC2)cc2c(=O)n(C)c3ccccc3c21` the AC50 [10] was 26.1 µM (active), the EC50 [17] was > 300 µM (not active) and the EC50 [18] was > 300 µM (not active).

In the case of `C[C@@H]1CN([C@@H](C)CO)S(=O)(=O)c2ccc(/C=C/c3ccccc3)cc2O[C@H]1CN(C)Cc1cncnc1`, the AC50 [3] is reported as 5.17 µM (active) and the AC50 [4] is reported as > 39 µM (inactive).

In the case of `O=S(=O)(c1ccccc1F)N1C[C@@H]2N[C@H](C1)[C@H]2c1ccc(/C=C/c2ccccc2)cc1`, the AC50 [3] is reported as 3.4 µM (active) and the AC50 [4] is reported as 16.1 µM (active).

With `NC(=O)c1ccc(-n2nnnc2SCC(=O)Nc2ccccc2F)cc1` the EC50 [1] was > 99 µM (inactive) and the EC50 [2] was > 99 µM (inactive).
